Six substances from patent EP0750903A1, “Deodorant composition” (Coöperatie Cosun U.A., priority 1995, dated 1997) can be followed below.

Holding throughout (assay): plate method, inhibition of growth on TSBA medium
Common to all, as to format: cell-based
What all share (conditions): Table C; 1:50 dilution of an overnight culture; ester conc 400 ug/ml

Assay [1] deals with Corynebacterium minutissimum ATCC 23348. The method, then: (§1) The tests reproduced below have been carried out on the basis of four strains which occur in the human armpit flora, viz. Micrococcus luteus ATCC 533, Staphylococcus epidermis ATCC 155, Corynebacterium xerosis ATCC 373 and Corynebacterium minutissimum ATCC 23348 (ATCC = American Type Culture Collection, Maryland 20852, USA).
(§2) The Micrococcus luteus strain has been incubated at 30°C and the other three strains at 37°C. All strains have been tested for purity and then frozen in glycerol in liquid nitrogen. In addition, the strains have been kept on plate (TSBA medium; TSBA = trypton soya broth (medium CM 129 of Oxoid Ltd. + 1% agar), and regularly re-inoculated (at least once a week).
(§3) The abovementioned sucrose-fatty acid esters have been used in concentrations of 400-800-1600-3200-6400 mg/l.
(§4) The plate method was made use of as test method. In this method, the medium was prepared in sucrose-fatty acid solutions in the above concentrations. The plate, which was provided with a TSBA medium (see above), was then inoculated with 100 µl of culture and incubated at the desired temperature (see above). In this connection, use was made of overnight cultures in TSB (= trypton soya broth) which have been inoculated in undiluted and diluted form.
(§5) The inhibition obtained in the test method of the growth of the respective strains is shown with the values 0 (no inhibition) and with 1, 2, 3, 4 or 5 plus signs, where + 0 - 20% inhibition ++ 20 - 40% inhibition +++ 40 - 60% inhibition ++++ 60 - 80% inhibition +++++ 80 - 100% inhibition.
(§6) A blank determination without sucrose-fatty acid solution on TSBA was used as a control (pos. cont. TSBA; see Tables A and B in Examples I and II).

Assay [2] has as its system Corynebacterium xerosis ATCC 373. The method, then:
as §1, §2, §3, §4, §5, §6

Assay [3] concerns Micrococcus luteus ATCC 533. The method, then:
as §1, §2, §3, §4, §5, §6

The test system of assay [4] is Staphylococcus epidermis ATCC 155. The method, then:
as §1, §2, §3, §4, §5, §6

lactitol stearate: in assay [1], the “inhibition of the growth, C.minutissimum” value is given as “+++++ (+++++ 80 - 100% inhibition)”. Further, in assay [2], the “inhibition of the growth, C.xerosis” value is “+++++ (+++++ 80 - 100% inhibition)”. Besides, the “inhibition of the growth, M.luteus” value in assay [3] is reported as “+++++ (+++++ 80 - 100% inhibition)”. Moreover, the “inhibition of the growth, S.epidermis” value in assay [4] is 0 (0 (no inhibition)).

For the substance sorbitol stearate, the “inhibition of the growth, C.minutissimum” value in assay [1] is given as “+++++ (+++++ 80 - 100% inhibition)”. Further, the “inhibition of the growth, C.xerosis” value in assay [2] is reported as 0 (0 (no inhibition)). The “inhibition of the growth, M.luteus” value in assay [3] is on record as 0 (0 (no inhibition)). Also, the “inhibition of the growth, S.epidermis” value in assay [4] is given as 0 (0 (no inhibition)).

Take sucrose behenate: the “inhibition of the growth, C.minutissimum” value in assay [1] is “+++++ (+++++ 80 - 100% inhibition)”. In addition, in assay [2], the “inhibition of the growth, C.xerosis” value was “+++ (+++ 40 - 60% inhibition)”. In addition, the “inhibition of the growth, M.luteus” value in assay [3] is on record as 0 (0 (no inhibition)). Moreover, the “inhibition of the growth, S.epidermis” value in assay [4] is 0 (0 (no inhibition)).

For the substance sucrose hydroxystearate, the “inhibition of the growth, C.minutissimum” value in assay [1] is “+++++ (+++++ 80 - 100% inhibition)”. For the same substance, in assay [2], the “inhibition of the growth, C.xerosis” value is reported as “+++++ (+++++ 80 - 100% inhibition)”. In assay [3], the “inhibition of the growth, M.luteus” value is “+++ (+++ 40 - 60% inhibition)”. Also, in assay [4], the “inhibition of the growth, S.epidermis” value was 0 (0 (no inhibition)).

sucrose isostearate: the “inhibition of the growth, C.minutissimum” value in assay [1] is “+++++ (+++++ 80 - 100% inhibition)”. In assay [2], the “inhibition of the growth, C.xerosis” value is reported as “+++++ (+++++ 80 - 100% inhibition)”. In addition, the “inhibition of the growth, M.luteus” value in assay [3] is recorded as “+ (+ 0 - 20% inhibition)”. Besides, the “inhibition of the growth, S.epidermis” value in assay [4] is recorded as 0 (0 (no inhibition)).

With sucrose oleate, in assay [1], the “inhibition of the growth, C.minutissimum” value is reported as “+++++ (+++++ 80 - 100% inhibition)”. Besides, in assay [2], the “inhibition of the growth, C.xerosis” value is reported as “+++++ (+++++ 80 - 100% inhibition)”. In addition, the “inhibition of the growth, M.luteus” value in assay [3] is “+++ (+++ 40 - 60% inhibition)”. For the same substance, in assay [4], the “inhibition of the growth, S.epidermis” value is 0 (0 (no inhibition)).
